Reference: US20250230193A1, “CYCLIC COMPOUND HAVING SELECTIVE KRAS INHIBITORY EFFECT ON HRAS AND NRAS” (CHUGAI SEIYAKU KABUSHIKI KAISHA, priority 2022, published 2025)
Where a SMILES comes first, the peptide text is derived from it. Bridges are numbered along the chain shown (N, C = ends). [ ]: non-standard residue; d: D form. The star is where a group is joined. hPhe(3-Cl-4-CF3) = N[C@@H](CCc1ccc(C(F)(F)F)c(Cl)c1)C(=O)O; NPrPhe(4-CF3) = CCCN[C@@H](Cc1ccc(C(F)(F)F)cc1)C(=O)O; NMeGly(cPent) = CN[C@H](C(=O)O)C1CCCC1; Hyp = O=C(O)[C@@H]1C[C@@H](O)CN1; NMeL = CN[C@@H](CC(C)C)C(=O)O; Morpholide = C1CN(*)CCO1; Aze = O=C(O)[C@@H]1CCN1; Ac4c = NC1(C(=O)O)CCC1; Sar = CNCC(=O)O

Experiments:
[1] = target: GDP-bound NRAS wild-type protein (Homo sapiens, UniProt P01111); assay: Binding to NRAS by surface plasmon resonance (SPR), Single Cycle Kinetics; conditions: SPR; for NRAS/KRAS (ratio of KD value with respect to NRAS to KD value with respect to KRAS) / NRAS/KRAS (ratio of KD value for NRAS to KD value for KRAS): GDP-bound NRAS wild-type vs GDP-bound KRAS wild-type
Sequence of GDP-bound NRAS wild-type protein (P01111 whole entry): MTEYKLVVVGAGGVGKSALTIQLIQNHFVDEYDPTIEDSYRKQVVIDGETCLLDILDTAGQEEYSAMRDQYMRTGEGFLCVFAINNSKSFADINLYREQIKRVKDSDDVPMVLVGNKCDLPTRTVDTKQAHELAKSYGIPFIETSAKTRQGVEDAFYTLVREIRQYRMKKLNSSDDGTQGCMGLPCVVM

[2] = target: GDP-bound HRAS wild-type protein (Homo sapiens, UniProt P01112); assay: Binding to HRAS by surface plasmon resonance (SPR), Single Cycle Kinetics; conditions: SPR; for HRAS/KRAS (ratio of KD value with respect to HRAS to KD value with respect to KRAS) / HRAS/KRAS (ratio of KD value for HRAS to KD value for KRAS): GDP-bound HRAS wild-type vs GDP-bound KRAS wild-type
Sequence of GDP-bound HRAS wild-type protein (P01112 whole entry): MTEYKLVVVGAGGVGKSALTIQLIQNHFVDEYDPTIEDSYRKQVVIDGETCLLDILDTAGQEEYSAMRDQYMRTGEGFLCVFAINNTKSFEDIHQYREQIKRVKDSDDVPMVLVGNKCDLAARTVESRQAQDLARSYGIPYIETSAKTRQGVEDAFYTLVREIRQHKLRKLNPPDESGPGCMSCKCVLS

CCCO[C@H](C)[C@@H]1NC(=O)[C@H](COCC)N(C)C(=O)C[C@@H](C(=O)N(C)CC)N(C)C(=O)[C@H](C2CCCC2)N(C)C(=O)C2(CC(C)(C)C2)NC(=O)[C@@H]2C[C@H](C)CN2C(=O)[C@H](CCc2cc(F)c(C(F)(F)F)c(F)c2)NC(=O)CN(C)C(=O)[C@H](Cc2ccc(C)cc2)N2CC/C=C\C[C@@H](C2=O)N(C)C(=O)CN(C)C1=O [PP2426]
NRAS/KRAS (ratio of KD value with respect to NRAS to KD value with respect to KRAS) [1]: AA (a compound having 20 or more is denoted as AA) | HRAS/KRAS (ratio of KD value with respect to HRAS to KD value with respect to KRAS) [2]: A (a compound having 10 or more and less than 20 is denoted as A)

CCCN1C(=O)[C@@H]2CCN2C(=O)CN(C)C(=O)[C@H]([C@@H](C)CC)NC(=O)[C@H](CC(C)C)N(C)C(=O)C[C@@H](C(=O)N2CCOCC2)NC(=O)[C@H](C2CCCC2)N(C)C(=O)C2(CCC2)NC(=O)[C@@H]2C[C@@H](OCC)CN2C(=O)[C@H](CCc2ccc(C(F)(F)F)c(Cl)c2)NC(=O)CN(C)C(=O)[C@@H]1Cc1ccc(C(F)(F)F)cc1 [PP0354] ([NMeL]I[Sar][Aze][NPrPhe(4-CF3)][Sar][hPhe(3-Cl-4-CF3)][Hyp](Et)[Ac4c][NMeGly(cPent)]D-Morpholide; lactam N-11)
NRAS/KRAS (ratio of KD for GDP-bound NRAS wild-type to KD for KRAS) ([1]; KD ratio NRAS/KRAS): C (A compound having a KD ratio of 0.1 or more and less than 3 is denoted as C) | HRAS/KRAS (ratio of KD for GDP-bound HRAS wild-type to KD for KRAS) ([2]; KD ratio HRAS/KRAS): B (a compound having 3 or more and less than 10 is denoted as B)

CC[C@H](C)[C@@H]1NC(=O)[C@H](CC2CC2)N(C)C(=O)C[C@@H](C(=O)N(C)C)N(C)C(=O)[C@H](C2CCCC2)N(C)C(=O)C2(CCC2)NC(=O)[C@@H]2C[C@@H](C)CN2C(=O)[C@H](CCc2ccc(C(F)(F)F)c(OC)c2)NC(=O)CN(C)C(=O)[C@H](Cc2ccc(C)cc2)N2CC/C=C\C[C@@H](C2=O)N(C)C(=O)CN(C)C1=O [PP1863]
NRAS/KRAS (ratio of KD value for NRAS to KD value for KRAS) ([1]; KD ratio): A (a compound having 10 or more and less than 20 is denoted as A) | HRAS/KRAS (ratio of KD value for HRAS to KD value for KRAS) ([2]; KD ratio): A (a compound having 10 or more and less than 20 is denoted as A)

C=CC[C@H]1C(=O)N[C@@H]([C@@H](C)CC)C(=O)N(C)CC(=O)N(C)[C@H]2CCCCCN(C2=O)[C@@H](Cc2ccc(C(F)(F)F)cc2)C(=O)N(C)CC(=O)N[C@@H](CCc2cc(F)c(C(F)(F)F)c(F)c2)C(=O)N2C[C@H](OCC)C[C@H]2C(=O)NC2(CCC2)C(=O)N(C)[C@@H](C2CCCC2)C(=O)N(C)[C@H](C(=O)N(C)C)CC(=O)N1C [PP0665]
NRAS/KRAS (ratio of KD value with respect to GDP-bound NRAS wild-type protein to KD value with respect to KRAS) ([1]; KD ratio NRAS/KRAS): B (a compound having 3 or more and less than 10 is denoted as B) | HRAS/KRAS (ratio of KD value with respect to GDP-bound HRAS wild-type protein to KD value with respect to KRAS) ([2]; KD ratio HRAS/KRAS): B (a compound having 3 or more and less than 10 is denoted as B)

CCOC[C@H]1C(=O)N[C@@H]([C@@H](C)CC)C(=O)N(C)CC(=O)N(C)[C@H]2C/C=C\CCN(C2=O)[C@@H](Cc2ccc(C)cc2)C(=O)N(C)CC(=O)N[C@@H](CCc2cc(F)c(C(F)(F)F)c(F)c2)C(=O)N2C[C@@H](C)C[C@H]2C(=O)NC2(CC(C)(C)C2)C(=O)N(C)[C@@H](C2CCCC2)C(=O)N(C)[C@H](C(=O)N(C)C)CC(=O)N1C [PP2439]
NRAS/KRAS (ratio of KD value with respect to NRAS to KD value with respect to KRAS) [1]: A (a compound having 10 or more and less than 20 is denoted as A) | HRAS/KRAS (ratio of KD value with respect to HRAS to KD value with respect to KRAS) [2]: A (a compound having 10 or more and less than 20 is denoted as A)

CC[C@H](C)[C@@H]1NC(=O)[C@H](CC(C)C)N(C)C(=O)C[C@@H](C(=O)N2CCOCC2)N(C)C(=O)[C@H](C2CCCC2)N(C)C(=O)C2(CCC2)NC(=O)[C@@H]2CC(F)(F)CN2C(=O)[C@H](CCc2cc(F)c(C(F)(F)F)c(F)c2)NC(=O)CN(C)C(=O)[C@H](Cc2ccc(C(F)(F)F)cc2)N2CCCC[C@@H](C2=O)N(C)C(=O)CN(C)C1=O [PP0575]
NRAS/KRAS (ratio of KD value with respect to GDP-bound NRAS wild-type protein to KD value with respect to KRAS) ([1]; KD ratio NRAS/KRAS): B (a compound having 3 or more and less than 10 is denoted as B) | HRAS/KRAS (ratio of KD value with respect to GDP-bound HRAS wild-type protein to KD value with respect to KRAS) ([2]; KD ratio HRAS/KRAS): B (a compound having 3 or more and less than 10 is denoted as B)

CC[C@H](C)[C@@H]1NC(=O)[C@H](CC)N(C)C(=O)C[C@@H](C(=O)N(C)C)N(C)C(=O)[C@H](C2CCCC2)N(C)C(=O)C2(CCC2)NC(=O)[C@@H]2CCN2C(=O)[C@H](CCc2cc(F)c(C(F)(F)F)c(F)c2)NC(=O)CN(C)C(=O)[C@H](Cc2ccc(C(F)(F)F)cc2)N2CC/C=C\C[C@@H](C2=O)N(C)C(=O)CN(C)C1=O [PP1139]
NRAS/KRAS (ratio of KD value with respect to NRAS to KD value with respect to KRAS) ([1]; KD ratio): A (a compound having 10 or more and less than 20 is denoted as A) | HRAS/KRAS (ratio of KD value with respect to HRAS to KD value with respect to KRAS) ([2]; KD ratio): A (a compound having 10 or more and less than 20 is denoted as A)

CCO[C@@H]1C[C@H]2C(=O)N(C)C3(CCC3)C(=O)N(C)[C@@H](C3CCCC3)C(=O)N(C)[C@H](C(=O)N(C)C)CC(=O)N(C)[C@@H](CC)C(=O)N[C@@H]([C@@H](C)CC)C(=O)N(C)CC(=O)N(C)[C@H]3C/C=C\CCN(C3=O)[C@@H](Cc3ccc(C)cc3)C(=O)N(C)CC(=O)N[C@@H](CCc3cc(F)c(C(F)(F)F)c(F)c3)C(=O)N2C1 [PP1781]
NRAS/KRAS (ratio of KD value for NRAS to KD value for KRAS) ([1]; KD ratio): A (a compound having 10 or more and less than 20 is denoted as A) | HRAS/KRAS (ratio of KD value for HRAS to KD value for KRAS) ([2]; KD ratio): B (a compound having 3 or more and less than 10 is denoted as B)
